Data reported in ChEMBL document CHEMBL5512602, “Unlocking the synthetic approaches and clinical application of approved small-molecule drugs for gastrointestinal cancer treatment: A comprehensive exploration” (Eur J Med Chem, 2023).

How the values were obtained:
A-375 = assay: Antiproliferative activity against human A-375 cells harboring BRAF V600E mutant assessed as reduction in cell growth; type: functional, cell-based
[1] = target: Vascular endothelial growth factor receptor 2 (Homo sapiens, UniProt P35968); assay: Inhibition of human recombinant VEGFR2 by FRET based Z-LYTE kinase assay
Sequence of Vascular endothelial growth factor receptor 2 (P35968 whole entry): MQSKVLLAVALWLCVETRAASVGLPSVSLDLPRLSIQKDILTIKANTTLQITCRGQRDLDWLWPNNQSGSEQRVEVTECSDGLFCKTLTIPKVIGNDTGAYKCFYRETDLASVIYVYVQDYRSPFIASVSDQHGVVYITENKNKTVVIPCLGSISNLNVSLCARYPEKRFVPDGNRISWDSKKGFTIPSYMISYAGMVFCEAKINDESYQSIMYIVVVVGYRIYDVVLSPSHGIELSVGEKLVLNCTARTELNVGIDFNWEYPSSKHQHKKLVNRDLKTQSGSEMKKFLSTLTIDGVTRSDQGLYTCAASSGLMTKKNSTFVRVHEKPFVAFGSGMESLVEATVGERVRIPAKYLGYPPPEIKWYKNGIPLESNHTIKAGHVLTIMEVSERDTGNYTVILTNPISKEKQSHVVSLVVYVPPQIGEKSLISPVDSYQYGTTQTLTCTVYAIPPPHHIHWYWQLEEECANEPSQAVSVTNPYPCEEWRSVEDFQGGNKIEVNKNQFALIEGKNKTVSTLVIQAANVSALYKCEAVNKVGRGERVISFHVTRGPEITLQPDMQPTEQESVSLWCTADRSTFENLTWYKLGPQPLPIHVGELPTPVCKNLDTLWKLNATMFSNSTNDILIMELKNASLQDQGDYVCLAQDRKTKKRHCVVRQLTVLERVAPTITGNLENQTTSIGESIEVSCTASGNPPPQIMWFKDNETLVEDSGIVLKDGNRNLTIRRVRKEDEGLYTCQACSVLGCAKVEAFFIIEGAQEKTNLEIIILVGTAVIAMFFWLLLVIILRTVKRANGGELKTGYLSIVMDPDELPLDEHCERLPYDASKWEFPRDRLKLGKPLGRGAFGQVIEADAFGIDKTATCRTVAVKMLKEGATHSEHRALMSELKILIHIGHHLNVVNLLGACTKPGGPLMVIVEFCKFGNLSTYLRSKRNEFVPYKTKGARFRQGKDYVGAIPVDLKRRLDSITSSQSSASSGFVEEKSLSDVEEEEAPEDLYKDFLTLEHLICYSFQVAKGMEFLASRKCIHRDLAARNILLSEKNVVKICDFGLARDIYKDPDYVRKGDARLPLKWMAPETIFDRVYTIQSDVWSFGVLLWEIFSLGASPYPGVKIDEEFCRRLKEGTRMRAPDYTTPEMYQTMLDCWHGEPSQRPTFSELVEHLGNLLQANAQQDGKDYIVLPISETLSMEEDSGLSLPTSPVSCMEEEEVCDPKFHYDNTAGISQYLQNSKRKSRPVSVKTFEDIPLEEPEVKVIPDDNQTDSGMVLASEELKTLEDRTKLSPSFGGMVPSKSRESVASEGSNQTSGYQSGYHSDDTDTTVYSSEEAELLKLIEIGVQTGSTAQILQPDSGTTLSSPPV

Row | EC50 (A-375) [nM] | IC50 [1] [nM] | Structure (SMILES)
1 | 4 | – | COC(=O)N[C@@H](C)CNc1nccc(-c2cn(C(C)C)nc2-c2cc(Cl)cc(NS(C)(=O)=O)c2F)n1 [ENCORAFENIB]
2 | – | 0.35 | CNC(=O)c1c(C)oc2cc(Oc3ncnc4cc(OC)c(OC)cc34)ccc12 [FRUQUINTINIB]
